Results published in US6008188A, “Cytokine potentiator and pharmaceutical formulation for cytokine administration” (Kanebo Limited, priority 1994, dated 1999).

Key:
[1] = system: Japanese native, male house rabbits; conditions: rabbit, in vivo
Description: Aqueous solutions of N-Methyl-L-Serine, Ethanolamine and N-Methylethanolamine that had been adjusted to have a pH of 7 with hydrochloric acid were used as test samples.
Using Japanese native, male house rabbits (body weight: about 3 kg), the test samples were tested according to the Draize method (see Appraisal of the Safety of Chemicals in Foods, Drugs and Cosmetics, p. 46, 1959, edited and published by the Deitorial Committee, Association of Food and Drug Officials of U.S.A.).
24 hours after the last application, the tested area of each rabbit was checked to score the erythema, edema, scab and rhagades, if any, formed in the area.
The erythema score, the edema score, the scab score, and the rhagades score as referred to in Table 17 were summed up to obtain the cumulative stimulation score.
Next, from the cumulative stimulation scores, obtained were the degrees of stimulation with N-Methyl-L-Serine, Ethanolamine and N-Methylethanolamine,according to the criteria shown in Table 18 below.

[2] = system: Normal human fibroblasts [CCD45SK (ATCC CRL 1506)]; assay: Response to TGF-β1: TIMP production by normal human fibroblasts (Test Examples 12-13); format: cell-based; conditions: Test Example 12, 1 mM, 6 days, 3 ng/ml TGF-β1, 3 days
Description: (§1) Normal human fibroblasts [CCD45SK (ATCC CRL 1506) as prepared from the skin of a person] were suspended at a cell density of 1×10^5 cells/ml in the MEM medium, comprising 10% (V/V) FBS and 1% (V/V) non-essential amino acids (produced by Dai-Nippon Pharmaceutical Co.). The suspended cells were seeded into each well of a 12-well plate in an amount of 0.8 ml/well (corresponding to 8×10^4 cells/well) and incubated in a saturated aqueous vapor with 5% CO2 at 37° C.

[3] = system: Japanese native, male house rabbits; conditions: rabbit, in vivo; remark: listed apart in the source
Description: Aqueous solutions of N-methyl-L-serine, ethanolamine and N-methylethanolamine that had been adjusted to have a pH 7 with hydrochloric acid were used as test samples.
Using Japanese native, male house rabbits (body weight: about 3 kg), the test samples were tested according to the above-mentioned the Draize method.
Precisely, the back of each rabbit was shaven and rubbed to form a scratched site (scratched skin). An adhesive tape for patch test (1.2×1.6 cm; Ribbon Aid, registered trade mane, produced by River Tape Chemicals Co.) as wetted with 0.1 ml of water, or 0.1 ml of an aqueous 1% (W/V) solution of the test compound was stuck onto the scratched skin and the normal skin. […] In addition, 48 hours after the peeling of the tape, the condition of the skin was also observed.
The scores as referred to in Table 21 were obtained, and the primary stimulation score was calculated according to the following equation.
Primary Stimulation Score=[(A+B)/2]+[(C+D)/2]+[(E+F)/2]+[(G+H)/2]
Next, from the primary stimulation scores, obtained was the degree of stimulation with N-Methyl-L-Serine or Ethanolamine or N-Methylethanolamineaccording to the criteria shown in Table 22 below.

[4] = system: Normal human fibroblasts [CCD45SK (ATCC CRL 1506)]; assay: Response to βFGF: procollagenase production by normal human fibroblasts CCD45SK (Test Examples 1-3); format: cell-based; conditions: for activity at 1000 µM: Homo sapiens, Fibroblast, read-out: Response to βFGF Increment; for Procollagenase Production: mean ± SD, n = 3
Description: In the following tests, the procollagenase production was quantified in terms of the collagenase activity as obtained through activation with trypsin.
It is known that βFGF promotes procollagenase production. In the following tests, therefore, the βFGF activity increment as attained by the compound added was calculated from the procollagenase production, relative to the control using purified water in place of the test compound.
as §1, with “C. […]” for “C.”
After having been incubated for 24 hours, the culture medium was removed from the plate by suction, and the cells remained were washed twice with an MEM medium containing 0.6% (v/v) (as final concentration) of FBS. Then, the cells were fed with 0.8 ml of the solution prepared above added to the cells, which were incubated for 2 days.
After the 2 days incubation, the culture medium was removed from the plate by suction, and the cells were fed with 0.8 ml of the solution and were further incubated for 2 days. This operation was repeated once again. Thus, the cells were processed in the medium containing the cytokine activity enhancer for 6 days in total.
After the above-mentioned process, the culture medium was removed from the plate by suction, and the cells were fed with 0.8 ml of an MEM medium containing 3 ng/ml of βFGF (produced by Boehringer Manheim Co.) and 0.6% (V/V) FBS, and were incubated for 3 days to obtain a culture supernatant.
3.5 ml of 10 mM Tris-HCl buffer [adjusted at pH 7.8 at 4° C., containing 1 mM calcium chloride and 0.05% (W/V) Brij-35] was added to 500 μl of the thus-obtained culture supernatant, and applied to CM-Sepharose CL-6B (trade name, produced by Pharmacia Co., having a bed volume of 0.5 ml) as previously equilibrated with the same buffer.
Next, the inhibitor was removed through treatment with 0.5 ml of the same buffer as above but containing 125 mM sodium chloride (4 times in all, 2 ml of the buffer was used in total), and the procollagenase was recovered through treatment with 0.5 ml of the same buffer as above but containing 500 mM sodium chloride (4 times in all, 2 ml of the buffer was used in total). This was used as a test sample.
The test sample was suitably diluted with a buffer for measurement (mentioned above), 25 μl of the thus-diluted sample was mixed with 25 μl of the buffer, 20 μl of a trypsin solution (as prepared by adding trypsin, Type 12 (produced by Sigma Co.) to the buffer at a concentration of 1 mg/ml) was added thereto, and this was incubated at 35° C. for 5 minutes. Then, 30 μl of a soybean trypsin inhibitor solution (as prepared at a concentration of 3 mg/ml, using the buffer) was added to this to thereby inactivate the trypsin. The resulting solution is designated collagenase solution.
Using type I collagen as labeled with fluorescein isothiocyanate (hereinafter referred to as FITC) (this is an acetic acid solution of FITC-collagen having a concentration of 1 mg/ml; produced by Cosmo-Bio Co.), as a substrate solution, the collagenase activity (unit/ml) of the solution was measured according to the method of Nagai et al. (see Inflammations, Vol. 4, No. 2, p. 123, 1984). […] The procollagenase production (unit/ml of culture medium) was thus obtained and referred to as X1.

Compound: CN[C@@H](CO)C(=O)O [Example 1, N-methyl-L-serine]
- cumulative stimulation to the skin (in words) [1]: low
- activity at 1000 µM ([2]; Homo sapiens, Fibroblast, control = 100, read-out: Response to TGF-β1 Increment): 240%
- TIMP Production ([2]; mean ± SD, n = 3): 240 ± 21 unit/ml
- Primary Stimulation Score [3]: 0
- stimulation to the skin (in words) [3]: low
- concentration dependence of increase in procollagenase production / response to βFGF ([4]; 0.01 to 10 mM): in a concentration-dependent manner
- activity at 1000 µM ([4]; 144 h, Test Example 1, 1 mM, 6 days, 3 ng/ml βFGF, control (purified water) = 100): 220%
- activity at 1000 µM ([4]; Test Example 2, 0.01 mM, control = 100): 100%
- activity at 1000 µM ([4]; Test Example 2, 1.0 mM, control = 100): 130%
- Procollagenase Production ([4]; Test Example 1, 1 mM, 6 days, 3 ng/ml βFGF): 15 ± 1.0 unit/ml
- Procollagenase Production ([4]; Test Example 2, 0.01 mM): 15 ± 3.3 unit/ml
- Procollagenase Production ([4]; Test Example 2, 0.1 mM): 17 ± 2.9 unit/ml
- Procollagenase Production ([4]; Test Example 2, 0.3 mM): 24 ± 3.5 unit/ml
- Procollagenase Production ([4]; Test Example 2, 1.0 mM): 19 ± 1.3 unit/ml
- Procollagenase Production ([4]; Test Example 2, 3.0 mM): 26 ± 1.5 unit/ml
- Procollagenase Production ([4]; Test Example 2, 10 mM): 32 ± 2.2 unit/ml
